According to patent EP0908457B1, “3-(1,2-benzisothiazol- and isoxazol-5-Y1)-2,4(1H,3H)-pyrimidinedione or thione and 3-(1,2-benzisothiazol- and isoxazol-5-y1)-4(3H)-pyrimidinone or thione herbicidal agents” (BASF AKTIENGESELLSCHAFT, priority 1997, dated 1999):

Columns and labels:
[1] = system: Echinochloa oryzoides (Ard.) Fritsch.; test: Preemergence weed control under flooded paddy conditions, ECHORC (Watergrass (Calif.)); type: in vivo; settings: flooded paddy; for herbicidal effect rating, ECHORC: rated three to four weeks after treatment; for ECHORC: herbicidal effect rating 0-9, three to four weeks after treatment; for herbicidal effect rating, ECHORC: meaning of each grade not given here
Cyperus iria = test: Preemergence weed control under flooded paddy conditions, CYPIR (Rice Flatsedge); type: in vivo; settings: flooded paddy; for herbicidal effect rating, CYPIR: rated three to four weeks after treatment; for CYPIR: herbicidal effect rating 0-9, three to four weeks after treatment; for herbicidal effect rating, CYPIR: meaning of each grade not given here
[2] = system: Cyperus serotinus, Rottb.; test: Preemergence weed control under flooded paddy conditions, CYPSE (Flatsedge); type: in vivo; settings: for herbicidal effect rating, CYPSE: rated three to four weeks after treatment; for CYPSE: herbicidal effect rating 0-9, three to four weeks after treatment; for herbicidal effect rating, CYPSE: meaning of each grade not given here
[3] = system: Monochoria vaginalis, Presl.; test: Preemergence weed control under flooded paddy conditions, MOOVA (Monochoria); type: in vivo; settings: flooded paddy; for herbicidal effect rating, MOOVA: rated three to four weeks after treatment; for MOOVA: herbicidal effect rating 0-9, three to four weeks after treatment; for herbicidal effect rating, MOOVA: meaning of each grade not given here
Sagittaria pygmaea, L. = test: Preemergence weed control under flooded paddy conditions, SAGPY (Arrowhead (Pygmaea)); type: in vivo; settings: flooded paddy; for herbicidal effect rating, SAGPY: rated three to four weeks after treatment; for SAGPY: herbicidal effect rating 0-9, three to four weeks after treatment; for herbicidal effect rating, SAGPY: meaning of each grade not given here
[4] = system: Oryza sativa, (L.) Tebonnet; test: Rice tolerance to post-transplant applications under flooded paddy conditions (Example 187), ORYSAT (Rice, Tebonnet); settings: for herbicidal effect rating ORYSAT: rated three to four weeks after treatment; for ORYSAT: herbicidal effect rating 0-9, three to four weeks after treatment
[5] = Rate 0.0320 kg/ha, preemergence
[6] = Rate 0.0620 kg/ha, preemergence
[7] = Rate 0.1250 kg/ha, preemergence
[8] = Rate 0.2500 kg/ha, preemergence
[9] = Rate 0.0320 kg/ha, preemergence weeds
[10] = Rate 0.0620 kg/ha, preemergence weeds
[11] = Rate 0.1250 kg/ha, preemergence weeds
[12] = Rate 0.2500 kg/ha, preemergence weeds
[13] = 0.0320 kg/ha, preemergence weeds
[14] = 0.0620 kg/ha, preemergence weeds
[15] = 0.1250 kg/ha, preemergence weeds
[16] = 0.2500 kg/ha, preemergence weeds

## CCCCS(=O)(=O)NC(=O)C(C)Oc1ccc(C)cc1-c1nsc2ccc(-n3c(=O)cc(C(F)(F)F)n(C)c3=O)cc12 (centres unmarked) [Example 575, Propionamide, N-(butylsulfonyl)-2-{{2-{5-[3,6-dihydro-3-methyl-2,6-dioxo-4-(trifluoromethyl)-1(2H)-pyrimidinyl]-1,2-benzisothiazol-3-yl}-p-tolyl}oxy}-]
[1]; [5]
  herbicidal effect rating, ECHORC: 2.0
[1]; [6]
  herbicidal effect rating, ECHORC: 5.0
[1]; [7]
  herbicidal effect rating, ECHORC: 6.0
[1]; [8]
  herbicidal effect rating, ECHORC: 9.0
Cyperus iria; [5]
  herbicidal effect rating, CYPIR: 0.0
Cyperus iria; [6]
  herbicidal effect rating, CYPIR: 0.0
Cyperus iria; [7]
  herbicidal effect rating, CYPIR: 4.0
Cyperus iria; [8]
  herbicidal effect rating, CYPIR: 6.0
[2]; [5]
  herbicidal effect rating, CYPSE: 0.0
[2]; [6]
  herbicidal effect rating, CYPSE: 0.0
[2]; [7]
  herbicidal effect rating, CYPSE: 0.0
[2]; [8]
  herbicidal effect rating, CYPSE: 2.0
[3]; [5]
  herbicidal effect rating, MOOVA: 4.0
[3]; [6]
  herbicidal effect rating, MOOVA: 4.0
[3]; [7]
  herbicidal effect rating, MOOVA: 9.0
[3]; [8]
  herbicidal effect rating, MOOVA: 9.0
Sagittaria pygmaea, L.; [5]
  herbicidal effect rating, SAGPY: 0.0
Sagittaria pygmaea, L.; [6]
  herbicidal effect rating, SAGPY: 0.0
Sagittaria pygmaea, L.; [7]
  herbicidal effect rating, SAGPY: 0.0
Sagittaria pygmaea, L.; [8]
  herbicidal effect rating, SAGPY: 3.0
[4]; Rate 0.0320 kg/ha
  herbicidal effect rating ORYSAT: 0.0
[4]; Rate 0.0620 kg/ha
  herbicidal effect rating ORYSAT: 0.0
[4]; Rate 0.1250 kg/ha
  herbicidal effect rating ORYSAT: 0.0
[4]; Rate 0.2500 kg/ha
  herbicidal effect rating ORYSAT: 2.0

## COc1ccc(C)cc1-c1noc2cc(F)c(-n3c(=O)cc(C(F)(F)F)n(C)c3=O)cc12 [Example 345, 2,4(1H,3H)-Pyrimidinedione, 3-[6-fluoro-3-(6-methoxy-m-tolyl)-1,2-benzisoxazol-5-yl]-1-methyl-6-(trifluoromethyl)-]
[1]; [9]
  herbicidal effect rating, ECHORC: 9.0
[1]; [10]
  herbicidal effect rating, ECHORC: 9.0
[1]; [11]
  herbicidal effect rating, ECHORC: 9.0
[1]; [12]
  herbicidal effect rating, ECHORC: 9.0
Cyperus iria; [9]
  herbicidal effect rating, CYPIR: 9.0
Cyperus iria; [10]
  herbicidal effect rating, CYPIR: 9.0
Cyperus iria; [11]
  herbicidal effect rating, CYPIR: 9.0
Cyperus iria; [12]
  herbicidal effect rating, CYPIR: 9.0
[2]; [9]
  herbicidal effect rating, CYPSE: 5.0
[2]; [10]
  herbicidal effect rating, CYPSE: 9.0
[2]; [11]
  herbicidal effect rating, CYPSE: 4.5
[2]; [12]
  herbicidal effect rating, CYPSE: 9.0
[3]; [9]
  herbicidal effect rating, MOOVA: 9.0
[3]; [10]
  herbicidal effect rating, MOOVA: 9.0
[3]; [11]
  herbicidal effect rating, MOOVA: 9.0
[3]; [12]
  herbicidal effect rating, MOOVA: 9.0
Sagittaria pygmaea, L.; [9]
  herbicidal effect rating, SAGPY: 4.5
Sagittaria pygmaea, L.; [10]
  herbicidal effect rating, SAGPY: 9.0
Sagittaria pygmaea, L.; [11]
  herbicidal effect rating, SAGPY: 9.0
Sagittaria pygmaea, L.; [12]
  herbicidal effect rating, SAGPY: 9.0
[4]; Rate 0.0320 kg/ha
  herbicidal effect rating ORYSAT: 5.5
[4]; Rate 0.0620 kg/ha
  herbicidal effect rating ORYSAT: 5.5
[4]; Rate 0.1250 kg/ha
  herbicidal effect rating ORYSAT: 5.5
[4]; Rate 0.2500 kg/ha
  herbicidal effect rating ORYSAT: 6.0

## COC(=O)C(C)Oc1cc2c(cc1-c1nsc3ccc(-n4c(=O)cc(C(F)(F)F)n(C)c4=O)cc13)CCC2 (centres unmarked) [Example 435, Propionic acid, 2-{{6-{5-[3,6-dihydro-3-methyl-2,6-dioxo-4-(trifluoromethyl)-1(2H)-pyrimidinyl]-1,2-benzisothiazol-3-yl}-5-indanyl}oxy}-, methyl ester]
[1]; [13]
  ECHORC: 5.0
[1]; [14]
  ECHORC: 7.0
[1]; [15]
  ECHORC: 7.0
[1]; [16]
  ECHORC: 9.0
Cyperus iria; [13]
  CYPIR: 0.0
Cyperus iria; [14]
  CYPIR: 0.0
Cyperus iria; [15]
  CYPIR: 2.0
Cyperus iria; [16]
  CYPIR: 3.0
[2]; [14]
  CYPSE: 0.0
[2]; [15]
  CYPSE: 3.0
[2]; [16]
  CYPSE: 2.0
[3]; [13]
  MOOVA: 9.0
[3]; [14]
  MOOVA: 9.0
[3]; [15]
  MOOVA: 9.0
[3]; [16]
  MOOVA: 9.0
Sagittaria pygmaea, L.; [13]
  SAGPY: 0.0
Sagittaria pygmaea, L.; [14]
  SAGPY: 0.0
Sagittaria pygmaea, L.; [15]
  SAGPY: 0.0
Sagittaria pygmaea, L.; [16]
  SAGPY: 6.0
[4]; 0.0320 kg/ha
  ORYSAT: 2.0
[4]; 0.0620 kg/ha
  ORYSAT: 1.0
[4]; 0.1250 kg/ha
  ORYSAT: 2.0
[4]; 0.2500 kg/ha
  ORYSAT: 2.0
